The test system of one assay is 3T3-L1 cells. The assay is described as follows: Adiponectin output in culture supernatant of differentiated 3T3-L1 cells (LANCE immunoassay). To be noted: for Adiponectin output: adiponectin concentration in culture supernatant, 72 hours, control without compound 24 ng/mL; for Adiponectin Ratio to Exam. 20 of Table 1: adiponectin output as ratio to that of Example 20 in Table 1, same method as Examples 1 to 31. The format is cell-based, mouse. As for the experimental part:
3T3-L1 cells were suspended in Dulbecco's Modified Eagle Medium (GIBCO, 12430-054) containing 10% fetal bovine serum to become 1.5×10^5 cells/mL and seeded. After the incubation in the CO2 incubator at 37° C. for 72 hours, the medium was removed by suction. Then, the medium was exchanged for Dulbecco's Modified Eagle Medium containing 10 μg/mL of insulin, 1 μM of dexamethasone, 0.5 mM of IBMX (3-isobutyl-1-methylxanthine) and 10% fetal bovine serum, and further incubated in the CO2 incubator at 37° C. for 48 hours. The test compound was added to the medium, and then the incubation was continued for 72 hours.
Eu (Europium) chelate labeling of anti-mouse adiponectin antibody (AF1119, by R&D Systems) was conducted by using 100 μg of LANCE Eu-W1024-ITC chelate (AD0013 by Perkin Elmer), which is a Eu chelate labeling reagent, to 200 μg of the antibody in accordance with the method described in the manual of the manufacturer. Biotin labeling of anti-mouse adiponectin antibody (AF1119, by R&D Systems) was conducted by using 26.8 μg of NHS-Biotin (1418165, Biotin Labeling Kit, by Boehringer Mannheim), which is a biotin labeling reagent, to 100 μg of the antibody in accordance with the method described in the manual.
The amount of adiponectin in the cell culture supernatant was measured as follows. The culture supernatant was diluted fivefold with TBS (Tris-buffered saline; 20 mM Tris-HCl pH 7.4, 0.15M NaCl) containing 0.1% bovine serum albumin (BSA), and 10 μL thereof was mixed with 300 ng/mL of the Eu chelate labeled antibody, 300 ng/mL of the biotin labeled antibody, 2.5 μg/mL of Streptavidin-APC (AD0201, by Perkin Elmer) and 10 μL of a TBS solution containing 0.1% BSA on the 384-well plate. After preserving the mixture at room temperature for 2 days, LANCE count was measured by using ARVO-SX multilabel counter (by Perkin Elmer) in accordance with the protocol of the LANCE method. At the same time, the mouse adiponectin preparation (8060-K, by LINCO) was also measured, and the concentration of adiponectin in the culture supernatant was calculated from the calibration curve of the preparation.
Adiponectin outputs were measured by the same method as that of Examples 1 to 31.

In assay [1] the test system is uncoupling protein 2 (UCP2) gene. Nature of the assay: UCP2 mRNA expression level in liver of ob/ob mice. The note with it: 500 mg/kg orally once a day; autopsy 38th day; divided by GAPDH mRNA; vs control groups; FIG. 4. Format: in vivo. As for the experimental part:
(§1) Male ob/ob mice of 5 weeks old (purchased from Charles River Laboratories Japan, Inc.) were preliminarily fed for one week by an experimental diet containing 25% by weight ratio of fats. Then, they were divided into groups so that their body weights and blood glucose were the same between the groups. After the division, N-lauroyl-L-valine (500 mg/kg) was orally administered once a day, and a control group was set, to which vehicle was administered. […] The non-fasting blood glucose was measured on the 6th, 14th and 26th day after starting the administration. The blood glucose was measured by collecting 6 μL of the blood from the caudal vein and using a Fuji DriChem system (produced by FUJIFILM Medical Co., Ltd.). […] Further, on the 27th day after starting the administration, the blood was collected by retroorbital bleeding, and the insulin and triglyceride concentrations in plasma were measured. […] SYBER GREEN Master Mix (ABI) and a primer for amplifying uncoupling protein 2 (UCP2) gene, acyl-CoA oxidase (ACO) gene or glyceraldehyde-3-phosphate dehydrogenase (GAPDH) gene were added to cDNA corresponding to 7.5 ng of total RNA, and the gene expression level was measured with ABI 7700 detector. […]

For assay [2], the system named is acyl-CoA oxidase (ACO) gene. Nature of the assay: ACO mRNA expression level in liver of ob/ob mice. The format is in vivo. To be noted: 500 mg/kg orally once a day; autopsy 38th day; divided by GAPDH mRNA; vs control groups; FIG. 5. As for the experimental part: as §1
A further assay has as its system ob/ob mice. Nature of the assay: Oral administration to ob/ob mice on 25% fat diet: blood glucose, glycated hemoglobin, plasma insulin and triglyceride. Format: in vivo. To be noted: 500 mg/kg orally once a day. As for the experimental part:
Male ob/ob mice of 5 weeks old (purchased from Charles River Laboratories Japan, Inc.) were preliminarily fed for one week by an experimental diet containing 25% by weight ratio of fats. Then, they were divided into groups so that their body weights and blood glucose were the same between the groups. After the division, N-lauroyl-L-valine (500 mg/kg) was orally administered once a day, and a control group was set, to which vehicle was administered. Taking into consideration the possibility that the effect of N-lauroyl-L-valine depends on the diet intake, pair-feeding group was also set as a control group in addition to the vehicle administered group, to which vehicle was daily administered in an average diet intake per a day of the N-lauroyl-L-valine administered group and, therefore, the diet intake thereof is quite the same as that of the N-lauroyl-L-valine administered group during the test period. The non-fasting blood glucose was measured on the 6th, 14th and 26th day after starting the administration. The blood glucose was measured by collecting 6 μL of the blood from the caudal vein and using a Fuji DriChem system (produced by FUJIFILM Medical Co., Ltd.). On the 26th day after starting the administration, the blood was collected by retroorbital bleeding, and 5 μL of its blood was used to conduct the measurement of glycated hemoglobin with the analyzer (HLC-723 GHbV, by Tosoh Technosystem). Further, on the 27th day after starting the administration, the blood was collected by retroorbital bleeding, and the insulin and triglyceride concentrations in plasma were measured. The measurement of the insulin concentration in plasma was conducted by using an insulin measurement kit (by Morinaga Institute of Biological Science, Inc.). The measurement of the triglyceride concentration in plasma was conducted by using a Fuji DriChem system. On the 38th day after staring the administration, autopsy was conducted to collect the liver of the mouse. Then, total RNA was extracted from the frozen liver by using ISOGEN (by Nippon Gene Co., Ltd.), and 0.5 μg of total RNA, oligo (dT) (by Invitrogen) and SuperScript III reverse transcriptase (by Invitrogen) were used to prepare cDNA. SYBER GREEN Master Mix (ABI) and a primer for amplifying uncoupling protein 2 (UCP2) gene, acyl-CoA oxidase (ACO) gene or glyceraldehyde-3-phosphate dehydrogenase (GAPDH) gene were added to cDNA corresponding to 7.5 ng of total RNA, and the gene expression level was measured with ABI 7700 detector. The expression levels of UCP2 and ACO genes were amended by being divided by the expression level of GAPDH mRNA. Two kinds of primers for amplifying UCP2 gene were used wherein the base sequences were ggcctctggaaagggactt and […] from 5′. […]

In the assay with 3T3-L1 cells (test compound 7 μg/mL), `CCCCCCCCCCCC(=O)NC(C)(CC)C(=O)O` (racemic) [Example 16] yielded an Adiponectin output of 78 ng/mL. In the case of `CCCCCCCCCCCC(=O)NC(C)(C(=O)O)C(C)C` (racemic) [Example 18], in the assay with 3T3-L1 cells (test compound 7 μg/mL), the Adiponectin output amounted to 87 ng/mL. Same read-out and setting: the result for `CCCCCCCCCCCC(=O)NC(C(N)=O)C(C)C` (racemic) [Example 21] reads 70 ng/mL. On the same count and under the same terms, the result for `CCCCCCCCCCCCNC(=O)C(NC(=O)CCCCCCCCCCC)C(C)C` (racemic) [Example 22] reads 64 ng/mL; that for `CCCCCCCCCCCC(=O)N[C@H](C(=O)NC1CCCCC1)C(C)C` (racemic) [Example 23, N-lauroyl-L-valine cyclohexylamide], 65 ng/mL. With `CCCCCCCCCCCC(=O)NC(C(=O)O)C(C(F)(F)F)C(F)(F)F` (racemic) [Example 34], the “Adiponectin Ratio to Exam. 20 of Table 1” value in the assay on 3T3-L1 cells came out at 25%.

In the case of `CCCCCCCCCCCC(=O)NC(Cc1ccccc1C)C(=O)O` (racemic) [Example 38], the “Adiponectin Ratio to Exam. 20 of Table 1” value in the assay with 3T3-L1 cells is given as 31%. With `CCCCCCCCCCCC(=O)NC(C)(Cc1ccccc1)C(=O)O` (racemic) [Example 41], the “Adiponectin Ratio to Exam. 20 of Table 1” value in the assay with 3T3-L1 cells was 22%. Turning to `CCCCCCCCC(=O)N[C@H](C(=O)O)[C@@H](C)CC` [Example 2], the Adiponectin output with 3T3-L1 cells (test compound 12.5 μM) was 58 ng/mL. The same measure, in the same setting: with `CCCCCCCCC(=O)N[C@@H](CC(C)C)C(=O)O` [Example 3] the figure was 42 ng/mL. With `CCCCCCCCC(=O)N[C@H](C(=O)O)C(C)C` [Example 4], the Adiponectin output in the assay on 3T3-L1 cells (test compound 12.5 μM) came out at 64 ng/mL. The same measure, in the same setting: with `CCCCCCCCCC(=O)N[C@H](C(=O)O)[C@@H](C)CC` [Example 5] the figure was 74 ng/mL; with `CCCCCCCCCC(=O)N[C@@H](CC(C)C)C(=O)O` [Example 6], 54 ng/mL. On to `C=CCCCCCCCCC(=O)N[C@@H](CC(C)C)C(=O)O` [Example 7], for which the Adiponectin output with 3T3-L1 cells (test compound 12.5 μM) is 61 ng/mL. `C=CCCCCCCCCC(=O)N[C@@H](Cc1ccccc1)C(=O)O` [Example 8]: the Adiponectin output in the assay on 3T3-L1 cells (test compound 7 μg/mL) was found to be 54 ng/mL. `CCCCCCCCCC(=O)N[C@H](C(=O)O)C(C)C` [Example 9] yielded an Adiponectin output in the assay on 3T3-L1 cells (test compound 12.5 μM) of 81 ng/mL. Same read-out and setting: the result for `C=CCCCCCCCCC(=O)N[C@H](C(=O)O)C(C)C` [Example 10] reads 59 ng/mL; that for `CCCCCCCCCCC(=O)N[C@@H](CC(C)C)C(=O)O` [Example 11], 45 ng/mL.

In the assay with 3T3-L1 cells (test compound 7 μg/mL), `CCCCCCCCCCC(=O)N[C@@H](Cc1ccccc1)C(=O)O` [Example 12] had an Adiponectin output of 58 ng/mL. For the molecule `CCCCCCCCCCCC(=O)N[C@H](C(=O)O)[C@@H](C)CC` [Example 14], the Adiponectin output with 3T3-L1 cells (test compound 12.5 μM) was found to be 84 ng/mL. The molecule `CCCCCCCCCCCC(=O)N[C@@H](CC(C)C)C(=O)O` [Example 15] returned an Adiponectin output in the assay on 3T3-L1 cells (test compound 12.5 μM) of 67 ng/mL. In the assay on 3T3-L1 cells (test compound 7 μg/mL), `CCCCCCCCCCCC(=O)NC(C)(C)C(=O)O` [Example 17] yielded an Adiponectin output of 81 ng/mL. On the same count and under the same terms, with `CCCCCCCCCCCC(=O)N[C@@H](CCSC)C(=O)O` [Example 19] the figure was 71 ng/mL. Regarding `CCCCCCCCCCCC(=O)N[C@H](C(=O)O)C(C)C` [Example 20, N-lauroyl-L-valine], in assay [1], the “UCP2 mRNA expression level in the liver” value is reported as “significantly increased”. The Adiponectin output in the assay on 3T3-L1 cells (test compound 12.5 μM) came out at 92 ng/mL. The “ACO mRNA expression level in the liver” value in assay [2] was “significantly increased”. Besides, the non-fasting blood glucose entry in the assay with ob/ob mice (6th, 14th and 26th day vs before starting the administration, FIG. 1) is recorded as “decreased”. For the same molecule, the glycated hemoglobin level entry in the assay on ob/ob mice (26th day, vs vehicle group and pair-feeding group, FIG. 2) is listed as “significantly lower”. Further, the “fasting insulin concentration in plasma” value in the assay with ob/ob mice (27th day vs before, increased in control groups, FIG. 3) is on record as “such increase was not seen”. In the assay on ob/ob mice (27th day, vs control groups, FIG. 6), the “triglyceride concentration in plasma” value is on record as “tended to be lower”. Consider `CCCCCCCCCCCC(=O)N(CC)[C@H](C(=O)O)C(C)C` [Example 24], for which the Adiponectin output in the assay on 3T3-L1 cells (test compound 7 μg/mL) came out at 66 ng/mL. For the molecule `CCCCCCCCCCCCCC(=O)N[C@H](C(=O)O)[C@@H](C)CC` [Example 25], in the assay on 3T3-L1 cells (test compound 12.5 μM), the Adiponectin output is 93 ng/mL. Still for that read-out and setting: with `CCCCCCCCCCCCCC(=O)N[C@@H](CC(C)C)C(=O)O` [Example 26] the figure was 56 ng/mL; with `CCCCCCCCCCCCCCCC(=O)N[C@@H](CC(C)C)C(=O)O` [Example 27], 57 ng/mL. Same read-out and setting: the result for `CCCCCCCCCCCCCCCC(=O)N[C@H](C(=O)O)C(C)C` [Example 28] reads 31 ng/mL; that for `CCCCCCCCCCCCCCCCCC(=O)N[C@@H](CC(C)C)C(=O)O` [Example 29], 43 ng/mL. Same read-out and setting: with `CCCCCCCCCCCCCCCCCC(=O)N[C@H](C(=O)O)C(C)C` [Example 30] the figure was 43 ng/mL; with `CCCCCCCCCCCCCCCCCCCCCC(=O)N[C@H](C(=O)O)C(C)C` [Example 31], 42 ng/mL. Regarding `CCCCCCCCCC(=O)N[C@H](C(=O)O)C(C)(C)C` [Example 32], the “Adiponectin Ratio to Exam. 20 of Table 1” value in the assay with 3T3-L1 cells came out at 56%. The same measure, in the same setting: with `CCCCCCCCCCCC(=O)N[C@H](C(=O)O)C(C)(C)C` [Example 33] the figure was 103%. In the case of `CCCCCCCCCCCC(=O)NC(C(=O)O)C(C)CC` (centres unmarked) [Example 35], the “Adiponectin Ratio to Exam. 20 of Table 1” value with 3T3-L1 cells is listed as 83%. Consider `CCCCCCCCCCCC(=O)N[C@H](C(=O)O)c1ccccc1` [Example 36], for which, in the assay with 3T3-L1 cells, the “Adiponectin Ratio to Exam. 20 of Table 1” value came to 33%. Still for that read-out and setting: the result for `CCCCCCCCCCCC(=O)N[C@@H](Cc1ccc(OC)cc1)C(=O)O` [Example 37] reads 46%. On to `CCCCCCCCCCCC(=O)N[C@H](C(=O)O)C1CCCCC1` [Example 39], for which the “Adiponectin Ratio to Exam. 20 of Table 1” value with 3T3-L1 cells is 41%. On the same count and under the same terms, the result for `CCCCCCCCCCCC(=O)N[C@H](C(=O)O)C(c1ccccc1)c1ccccc1` [Example 40] reads 14%; that for `CCCCCCCCCCCC(=O)N[C@@H](Cc1ccc(Cl)cc1)C(=O)O` [Example 42], 44%; that for `CCCCCCCCCCCC(=O)N[C@@H](Cc1csc2ccccc12)C(=O)O` [Example 43], 20%.

The values are drawn from patent US7732637B2, “Acylamide compounds having secretagogue or inducer activity of adiponectin” (Ajinomoto Co., Inc., priority 2005, dated 2010).
